Entries after “also recorded” stand apart in the source; their conditions may differ.
Assays:
EGFR = test: Immunohistochemical staining for EGFR; format: in vivo, human; conditions: lesional skin treated with cyclopamine cream for 24 hours
Source text: Epidermal growth factor receptor (EGFR) is another marker known to display downregulation of expression with the differentiation of epidermal keratinocytes. […] Ordinarily EGFR expression is not detected immunohistochemically in the suprabasal layers of normal epidermis and the return of EGFR expression to the basal layer of epidermis is regarded to be one of the first signs of effective treatment of psoriasis by various modalities [King L E Jr. et al (1990) Journal of Investigative Dermatology 95: 10S-12S]. We evaluated the EGFR expression with anti-human EGFR antibody EGFR 113 (Novocastra Lab. Ltd., U.K.) and with immunohistochemical staining with peroxidase.

CD44 = test: Immunohistochemical staining for the CD44 antigen; format: in vivo, human; conditions: lesional skin, 24th hour of treatment
Source text: What might be the key/proximal pathogenic event(s) intervened by cyclopamine? […] Both FIG. 4G and a closer-up view on FIG. 4H show decreased CD44 expression in the suprabasal and spinous layers in lesional epidermis in comparison to the situation in non-lesional epidermis.

Ki-67 antigen = conditions: treated lesional skin, 24th hour
Source text: (§1) All antibodies and reagents for these immunohistochemical investigations were purchased from DAKO (Glostrup, Denmark); human Ki-67 antigen was detected by the monoclonal antibody M7187, human epithelial antigen was detected by the monoclonal antibody Ber-EP4, human CD4 antigen was detected by the monoclonal antibody M0716, human CD8 antigen was detected by the monoclonal antibody C8/144B. Besides the CD8 antigen, the monoclonal antibody C8/144B is known to recognize and bind to the cytokeratin 15 expressed by the hair stem cells (Kanitakis J. et al. (1999) Eur. J. Dermatol. 9:363-365). A DAKO “universal visualization kit” (LSAB2) employing biotinylated secondary antibody and peroxidase-conjugated streptavidin (pre-diluted to match the dilutions of DAKO-supplied primary antibodies) was used for the visualization reactions. All reaction conditions were as recommended by the manufacturer.
The Ki-67 antigen is a marker of the proliferating cells.

CD4 positive lymphocytes = test: Immunohistochemical staining for the CD4 antigen in lesional skin; format: in vivo, human; conditions: treated half of lesion, 24th hour
Source text: (§2) All reaction conditions were as recommended by the manufacturer.
Moreover, conversion of the CD4(−) and CD8(−) lymphocytes to the CD4(+) and CD8(+) lymphocytes is viewed widely in the prior art as a requirement for their psoriatic plaque causing action [reviewed in Krueger J G (2002) Journal of the American Academy of Dermatology 46:1-23].

[1] = system: basal cell carcinoma cells; conditions: found earlier, PCT/TR 01/00027; cited from earlier work
[2] = system: epithelial antigen (Ber-EP4); test: Immunohistochemical staining for the epithelial antigen with the Ber-EP4 antibody; format: in vivo, human; conditions: 24th hour
Source text: as §2
The monoclonal antibody Ber-EP4 is known to label the basal layer cells in normal epidermis. The outer root sheath of hair follicles, where the hair stem cells are thought to reside, are also known to be labeled with Ber-EP4.

cytokeratin 15 = test: Immunohistochemical staining with the C8/144B antibody (cytokeratin 15); conditions: 24th hour
Source text: as §1

psoriatic lesional skin = test: Histopathological examination (H&E) of treated psoriatic lesional skin; format: in vivo, human; conditions: treated half of lesion, 24th hour
Method: (§3) At intervals of 4 hours, approximately 30 μl cream was applied directly onto the lesion and the cream-applied region was covered against accidental smearing and loss of the cream (FIG. 1 B).
FIG. 2A to FIG. 2W show histopathological and immunohistochemical examination findings of the tissue sections from the non-lesional skin, cyclopamine-treated lesional skin and non-treated lesional skin. Compared to the non-lesional skin (FIG. 2A), the non-treated lesional skin (FIG. 2B) is seen to display the typical histopathological signs of a psoriatic skin lesion mentioned above in the “Background of Invention”. Tissue sections from the cyclopamine-treated half of the original lesion reveal, however, dramatic improvement and regression to normalcy. These histopathological signs of regression to normalcy, exemplified in the FIG. 2C and FIG. 2D (examples from other cyclopamine-treated lesions and patients are given later) include the following: […]

psoriatic lesions = test: Topical treatment of psoriatic lesions of patients, clinical response and EES scoring; format: in vivo, human
Method: The base cream used is made predominantly of heavy paraffin oil (10% w/w), vaseline (10% w/w), stearyl alcohol (8% w/w), polyoxylsteareth-40 (3% w/w) and water (68% w/w) but another suitably formulated base cream is also possible. […] The dosing and the application schedules followed for the lesion shown in FIG. 1A (psoriatic plaque on the dorsum of hand) are as follows: about 30 μl cream applied directly onto the lesion with the aid of a steel spatula every four hours for 24 hours. The cream-applied area is protected from accidental smearing and loss of the cream by covering with an aluminum applicator (FIG. 1 B). The dosing and the application schedules followed for the lesion shown in FIG. 1 D (psoriatic plaque at the scapular region) are as follows: about 30 μl cream applied directly onto the lesion every four hours for 24 hours. The cream-applied area is similarly covered against the smearing and loss of cream. Other treated psoriatic patients and lesions received from about 30 to 35 μl cream to each lesion at intervals of every 3 to 5 hours, as suitable and convenient. Lesions were similarly covered against the smearing and loss of cream. […] The corticosteroid used for treatment of the lesion shown in FIG. 4E was clobetasol 17-propionate in a final concentration of about 1.1 mM in base cream. […] Other corticosteroid molecules well known in the art are contemplated to be also suitable and capable of replacing the above-mentioned corticosteroid molecules at suitable concentrations (the suitable concentration ranges for corticosteroids are also known in the art).
as §3
Treatment was then discontinued and the lesion was followed-up.
Severity of psoriatic lesions can be assessed on a semi-quantitative scale by giving separate scores for the erythema, elevation and scaling of a lesion and then by summing up the scores to obtain a score called the EES score of that lesion (Bowman P. H. et al. (2002) J. Am. Acad. Dermatol. 46:907-913).

[3] = Follow-up of healthy / non-lesional skin after topical cyclopamine for adverse effects; conditions: for adverse effect of topical application on healthy / non-lesional skin: described concentration and dosing conditions

CC1=C2C[C@H]3[C@@H](CC=C4C[C@@H](O)CC[C@@]43C)[C@@H]2CC[C@]12O[C@@H]1C[C@H](C)CN[C@H]1[C@H]2C [cyclopamine]
EGFR expression in lesional epidermis (EGFR): rapidly normalized within 24 hours
CD44 expression in lesional epidermis (CD44): rapid induction and normalization of the CD44 expression; also recorded: increase and normalization of the expression of CD44
frequency and epidermal position of Ki-67 antigen positive cells (Ki-67 antigen): Return of the Ki-67 displaying cells to the epidermal basal layer; also recorded: return of both the frequency and the epidermal position of the Ki-67 antigen positive cells to normalcy
CD4 positive lymphocytes infiltrating the lesional skin (CD4 positive lymphocytes): Disappearance of the CD4 positive lymphocytes from the dermis of treated area; also recorded: largely cleared
Ber-EP4 staining of basal cells of normal epidermis exposed under the same conditions [1]: continued to be Ber-EP4 positive
effect on basal cell carcinoma cells (differentiation, Ber-EP4 staining) [1]: cause their differentiation and caused loss of their Ber-EP4 staining
Ber-EP4 staining of basal cells of non-lesional skin after exposure ([2]; non-lesional skin in psoriasis): remained Ber-EP4 positive
Ber-EP4 labeling of epidermal basal layer cells of lesional skin ([2]; treated lesional skin): cyclopamine-induced reversion to normalcy; also recorded: Epidermal basal layer cells are seen to display the epithelial antigen; also recorded: reverted to normalcy
cytokeratin 15 in basal cells of non-lesional epidermis after exposure (cytokeratin 15; non-lesional skin): continued to be positive for the cytokeratin 15
C8/144B (cytokeratin 15) labeling of epidermal basal layer cells of lesional skin (cytokeratin 15; treated lesional skin): consistent restoration of the lost cytokeratin 15 expression; also recorded: normalized and became labeled by the C8/144B antibody
granular layer of epidermis (psoriatic lesional skin): Vigorous re-appearance
hyperkeratosis and parakeratosis in the stratum corneum (psoriatic lesional skin): decreased but full normalization of this oldest epidermal layer did not yet happen
inflammatory cells infiltrating the subepidermal dermis (psoriatic lesional skin): Disappearance from the cyclopamine-treated lesional skin of most of the inflammatory cells
rete ridges and epidermal hyperplasia (psoriatic lesional skin): Return of the thickened and elongated rete ridges to normal levels and marked decrease of epidermal hyperplasia
suprapapillary epidermis and papillary edema (psoriatic lesional skin): Return of the thinning of the suprapapillary epidermis to normalcy and the disappearance of papillary edema
day on which the lesion cleared / became undetectable (psoriatic lesions; 18 mM cyclopamine cream every fourth hour for 24 hours, then follow-up without treatment): > 8 days
days of continued treatment until the lesion cleared (psoriatic lesions; application every fourth hour until clearance): 3 to 4 days
lesions subjected to single-day treatment that failed to clear completely (psoriatic lesions; human, in vivo): about 29%
effectiveness on treated psoriatic lesions of different patients and body parts (psoriatic lesions; patients 29 to 57 years, lesions on extremities to trunk): highly effective on every psoriatic lesion for which it was used
appearance of lesion site on the 14th day of follow-up (psoriatic lesions; plaque at left scapular region, 1 day of treatment, FIG. 1F): No lesion is visible, skin appears normal
appearance of lesion after 1 day of treatment and 7 days of follow-up (psoriatic lesions; plaque at left scapular region, FIG. 1E): With the possible exception of slight erythema, lesion is no longer visible
site of the treated lesion over a month of follow-up (psoriatic lesions; scapular plaque, 1 day of treatment): healthy-looking normal skin
longest duration of follow-up of healthy skin with no adverse effect found ([3]; at the time of writing of the invention): over 14 months
adverse effect of topical application on healthy / non-lesional skin [3]: no adverse effect has been detected
adverse effect of topical application on healthy / non-lesional skin ([3]; listed as Cyclopamine): did not adversely affect the non-lesional skin; also recorded: no detectable adverse effect
follow-up of skin sites of application showing healthy-looking normal skin and hair ([3]; interval since filing of PCT/TR 02/00017): more than 31 months
